Assay: xn = mol fraction of the nth substance listed
Details: 101 kPa, Liquid, Vibrating tube method

CCCn1cc[n+](C)c1.N[C@@H](CCC(=O)O)C(=O)[O-] + O
Details | mass density [kg/m3]
283.15 K, x1 = 0.039 | 1090.4
283.15 K, x1 = 0.0455 | 1100.76
283.15 K, x1 = 0.0497 | 1106.9
283.15 K, x1 = 0.0683 | 1129.12
283.15 K, x1 = 0.0783 | 1139.04
283.15 K, x1 = 0.0894 | 1147.7
283.15 K, x1 = 0.0975 | 1153.37
283.15 K, x1 = 0.1235 | 1169.78
283.15 K, x1 = 0.1451 | 1178.22
283.15 K, x1 = 0.1925 | 1191.85
283.15 K, x1 = 0.239 | 1201.76
283.15 K, x1 = 0.2888 | 1208.1
283.15 K, x1 = 0.3294 | 1211.85
283.15 K, x1 = 0.3767 | 1215
283.15 K, x1 = 0.4265 | 1218.6
283.15 K, x1 = 0.4713 | 1220.69
283.15 K, x1 = 0.5112 | 1221.72
283.15 K, x1 = 0.5427 | 1223.07
288.15 K, x1 = 0.039 | 1088.42
288.15 K, x1 = 0.0455 | 1098.39
288.15 K, x1 = 0.0497 | 1104.45
288.15 K, x1 = 0.0683 | 1126.36
288.15 K, x1 = 0.0783 | 1136.21
288.15 K, x1 = 0.0894 | 1144.79
288.15 K, x1 = 0.0975 | 1150.37
288.15 K, x1 = 0.1235 | 1166.6
288.15 K, x1 = 0.1451 | 1175.07
288.15 K, x1 = 0.1925 | 1188.67
288.15 K, x1 = 0.239 | 1198.15
288.15 K, x1 = 0.2888 | 1204.86
288.15 K, x1 = 0.3294 | 1208.49
288.15 K, x1 = 0.3767 | 1211.68
288.15 K, x1 = 0.4265 | 1214.72
288.15 K, x1 = 0.4713 | 1217.33
288.15 K, x1 = 0.5112 | 1218.47
288.15 K, x1 = 0.5427 | 1220.26
293.15 K, x1 = 0.039 | 1086.11
293.15 K, x1 = 0.0455 | 1095.92
293.15 K, x1 = 0.0497 | 1101.92
293.15 K, x1 = 0.0683 | 1123.56
293.15 K, x1 = 0.0783 | 1133.31
293.15 K, x1 = 0.0894 | 1141.8
293.15 K, x1 = 0.0975 | 1147.34
293.15 K, x1 = 0.1235 | 1163.35
293.15 K, x1 = 0.1451 | 1172.01
293.15 K, x1 = 0.1925 | 1185.47
293.15 K, x1 = 0.239 | 1194.83
293.15 K, x1 = 0.2888 | 1201.46
293.15 K, x1 = 0.3294 | 1205.08
293.15 K, x1 = 0.3767 | 1208.49
293.15 K, x1 = 0.4265 | 1211.93
293.15 K, x1 = 0.4713 | 1213.9
293.15 K, x1 = 0.5112 | 1215.18
293.15 K, x1 = 0.5427 | 1216.93
298.15 K, x1 = 0.039 | 1083.72
298.15 K, x1 = 0.0455 | 1093.38
298.15 K, x1 = 0.0497 | 1099.3
298.15 K, x1 = 0.0683 | 1120.71
298.15 K, x1 = 0.0783 | 1130.35
298.15 K, x1 = 0.0894 | 1138.78
298.15 K, x1 = 0.0975 | 1144.3
298.15 K, x1 = 0.1235 | 1160.15
298.15 K, x1 = 0.1451 | 1168.85
298.15 K, x1 = 0.1925 | 1182.21
298.15 K, x1 = 0.239 | 1191.61
298.15 K, x1 = 0.2888 | 1197.83
298.15 K, x1 = 0.3294 | 1201.85
298.15 K, x1 = 0.3767 | 1205.25
298.15 K, x1 = 0.4265 | 1209.67
298.15 K, x1 = 0.4713 | 1210.64
298.15 K, x1 = 0.5112 | 1211.78
298.15 K, x1 = 0.5427 | 1213.92
303.15 K, x1 = 0.039 | 1081.22
303.15 K, x1 = 0.0455 | 1090.77
303.15 K, x1 = 0.0497 | 1096.64
303.15 K, x1 = 0.0683 | 1117.81
303.15 K, x1 = 0.0783 | 1127.36
303.15 K, x1 = 0.0894 | 1135.72
303.15 K, x1 = 0.0975 | 1141.18
303.15 K, x1 = 0.1235 | 1156.96
303.15 K, x1 = 0.1451 | 1165.64
303.15 K, x1 = 0.1925 | 1178.9
303.15 K, x1 = 0.239 | 1188.36
303.15 K, x1 = 0.2888 | 1194.59
303.15 K, x1 = 0.3294 | 1198.55
303.15 K, x1 = 0.3767 | 1201.91
303.15 K, x1 = 0.4265 | 1206.45
303.15 K, x1 = 0.4713 | 1207.32
303.15 K, x1 = 0.5112 | 1208.42
303.15 K, x1 = 0.5427 | 1210.64
308.15 K, x1 = 0.039 | 1078.64
308.15 K, x1 = 0.0455 | 1088.06
308.15 K, x1 = 0.0497 | 1093.89
308.15 K, x1 = 0.0683 | 1114.86
308.15 K, x1 = 0.0783 | 1124.33
308.15 K, x1 = 0.0894 | 1132.63
308.15 K, x1 = 0.0975 | 1138.07
308.15 K, x1 = 0.1235 | 1153.81
308.15 K, x1 = 0.1451 | 1162.49
308.15 K, x1 = 0.1925 | 1175.73
308.15 K, x1 = 0.239 | 1185.05
308.15 K, x1 = 0.2888 | 1191.36
308.15 K, x1 = 0.3294 | 1195.3
308.15 K, x1 = 0.3767 | 1198.71
308.15 K, x1 = 0.4265 | 1203.15
308.15 K, x1 = 0.4713 | 1203.95
308.15 K, x1 = 0.5112 | 1205.15
308.15 K, x1 = 0.5427 | 1207.34
313.15 K, x1 = 0.039 | 1075.97
313.15 K, x1 = 0.0455 | 1085.27
313.15 K, x1 = 0.0497 | 1091.07
313.15 K, x1 = 0.0683 | 1111.85
313.15 K, x1 = 0.0783 | 1121.25
313.15 K, x1 = 0.0894 | 1129.5
313.15 K, x1 = 0.0975 | 1134.91
313.15 K, x1 = 0.1235 | 1150.57
313.15 K, x1 = 0.1451 | 1159.24
313.15 K, x1 = 0.1925 | 1172.52
313.15 K, x1 = 0.239 | 1181.78
313.15 K, x1 = 0.2888 | 1188.1
313.15 K, x1 = 0.3294 | 1192.09
313.15 K, x1 = 0.3767 | 1195.42
313.15 K, x1 = 0.4265 | 1199.74
313.15 K, x1 = 0.4713 | 1200.57
313.15 K, x1 = 0.5112 | 1201.78
313.15 K, x1 = 0.5427 | 1203.93
318.15 K, x1 = 0.039 | 1073.22
318.15 K, x1 = 0.0455 | 1082.41
318.15 K, x1 = 0.0497 | 1088.19
318.15 K, x1 = 0.0683 | 1108.8
318.15 K, x1 = 0.0783 | 1118.14
318.15 K, x1 = 0.0894 | 1126.34
318.15 K, x1 = 0.0975 | 1131.71
318.15 K, x1 = 0.1235 | 1147.32
318.15 K, x1 = 0.1451 | 1155.99
318.15 K, x1 = 0.1925 | 1169.27
318.15 K, x1 = 0.239 | 1178.48
318.15 K, x1 = 0.2888 | 1184.82
318.15 K, x1 = 0.3294 | 1188.84
318.15 K, x1 = 0.3767 | 1192.17
318.15 K, x1 = 0.4265 | 1196.17
318.15 K, x1 = 0.4713 | 1197.03
318.15 K, x1 = 0.5112 | 1198.21
318.15 K, x1 = 0.5427 | 1200.61
323.15 K, x1 = 0.039 | 1070.37
323.15 K, x1 = 0.0455 | 1079.46
323.15 K, x1 = 0.0497 | 1085.24
323.15 K, x1 = 0.0683 | 1105.7
323.15 K, x1 = 0.0783 | 1114.98
323.15 K, x1 = 0.0894 | 1123.14
323.15 K, x1 = 0.0975 | 1128.49
323.15 K, x1 = 0.1235 | 1144.03
323.15 K, x1 = 0.1451 | 1152.7
323.15 K, x1 = 0.1925 | 1166
323.15 K, x1 = 0.239 | 1175.27
323.15 K, x1 = 0.2888 | 1181.51
323.15 K, x1 = 0.3294 | 1185.58
323.15 K, x1 = 0.3767 | 1188.94
323.15 K, x1 = 0.4265 | 1192.88
323.15 K, x1 = 0.4713 | 1193.63
323.15 K, x1 = 0.5112 | 1194.79
323.15 K, x1 = 0.5427 | 1197.22
328.15 K, x1 = 0.039 | 1067.43
328.15 K, x1 = 0.0455 | 1076.44
328.15 K, x1 = 0.0497 | 1082.22
328.15 K, x1 = 0.0683 | 1102.55
328.15 K, x1 = 0.0783 | 1111.78
328.15 K, x1 = 0.0894 | 1119.9
328.15 K, x1 = 0.0975 | 1125.24
328.15 K, x1 = 0.1235 | 1140.73
328.15 K, x1 = 0.1451 | 1149.4
328.15 K, x1 = 0.1925 | 1162.68
328.15 K, x1 = 0.239 | 1172
328.15 K, x1 = 0.2888 | 1178.21
328.15 K, x1 = 0.3294 | 1182.29
328.15 K, x1 = 0.3767 | 1185.67
328.15 K, x1 = 0.4265 | 1189.64
328.15 K, x1 = 0.4713 | 1190.41
328.15 K, x1 = 0.5112 | 1191.55
328.15 K, x1 = 0.5427 | 1193.66
333.15 K, x1 = 0.039 | 1064.43
333.15 K, x1 = 0.0455 | 1073.32
333.15 K, x1 = 0.0497 | 1079.13
333.15 K, x1 = 0.0683 | 1099.36
333.15 K, x1 = 0.0783 | 1108.54
333.15 K, x1 = 0.0894 | 1116.63
333.15 K, x1 = 0.0975 | 1121.94
333.15 K, x1 = 0.1235 | 1137.4
333.15 K, x1 = 0.1451 | 1146.06
333.15 K, x1 = 0.1925 | 1159.35
333.15 K, x1 = 0.239 | 1168.59
333.15 K, x1 = 0.2888 | 1174.99
333.15 K, x1 = 0.3294 | 1178.98
333.15 K, x1 = 0.3767 | 1182.34
333.15 K, x1 = 0.4265 | 1186.35
333.15 K, x1 = 0.4713 | 1187.18
333.15 K, x1 = 0.5112 | 1188.22
333.15 K, x1 = 0.5427 | 1190.35
338.15 K, x1 = 0.039 | 1061.36
338.15 K, x1 = 0.0455 | 1070.11
338.15 K, x1 = 0.0497 | 1075.98
338.15 K, x1 = 0.0683 | 1096.1
338.15 K, x1 = 0.0783 | 1105.26
338.15 K, x1 = 0.0894 | 1113.31
338.15 K, x1 = 0.0975 | 1118.6
338.15 K, x1 = 0.1235 | 1134.05
338.15 K, x1 = 0.1451 | 1142.71
338.15 K, x1 = 0.1925 | 1155.98
338.15 K, x1 = 0.239 | 1165.3
338.15 K, x1 = 0.2888 | 1171.72
338.15 K, x1 = 0.3294 | 1175.77
338.15 K, x1 = 0.3767 | 1179.04
338.15 K, x1 = 0.4265 | 1183.09
338.15 K, x1 = 0.4713 | 1183.94
338.15 K, x1 = 0.5112 | 1184.93
338.15 K, x1 = 0.5427 | 1187.07
